The NIST ThermoML archive (doi:10.1016/j.fluid.2013.06.021)

Experiment: xn = mol fraction of the nth substance listed
Details: 101 kPa, Liquid; for speed of sound: Sing-around technique in a fixed-path interferometer; for mass density: Vibrating tube method; for viscosity: Capillary tube (Ostwald / Ubbelohde) method

CCCCOCCO [2-butoxyethan-1-ol] + CC(C)O
Details	mass density [kg/m3]	speed of sound [m/s]	viscosity [mPa·s]
293.15 K, x1 = 0.0539	796.164	1178.8	–
293.15 K, x1 = 0.1088	805.962	1190.2	–
293.15 K, x1 = 0.1607	814.567	1200.9	–
293.15 K, x1 = 0.2041	821.305	1210	–
293.15 K, x1 = 0.2567	828.971	1220.4	–
293.15 K, x1 = 0.3095	836.163	1230.7	–
293.15 K, x1 = 0.4041	847.973	1247.7	–
293.15 K, x1 = 0.5041	859.135	1263.9	–
293.15 K, x1 = 0.6113	869.832	1279.6	–
293.15 K, x1 = 0.7078	878.523	1292.2	–
293.15 K, x1 = 0.8095	886.841	1304	–
293.15 K, x1 = 0.857	890.465	1309.2	–
293.15 K, x1 = 0.9069	894.11	1314.2	–
293.15 K, x1 = 0.9527	897.317	1318.8	–
298.15 K, x1 = 0.0539	791.98	1160.9	–
298.15 K, x1 = 0.054	–	–	2.105
298.15 K, x1 = 0.1088	801.77	1172.5	2.114
298.15 K, x1 = 0.1607	810.37	1183.5	2.132
298.15 K, x1 = 0.2041	817.11	1192.6	2.145
298.15 K, x1 = 0.2567	824.79	1203	2.166
298.15 K, x1 = 0.3095	831.99	1213.2	2.184
298.15 K, x1 = 0.4041	843.83	1230.4	2.247
298.15 K, x1 = 0.5041	855	1246.6	2.327
298.15 K, x1 = 0.6113	865.69	1262.2	2.427
298.15 K, x1 = 0.7078	874.37	1274.7	–
298.15 K, x1 = 0.7079	–	–	2.538
298.15 K, x1 = 0.8095	882.67	1286.7	2.648
298.15 K, x1 = 0.857	886.29	1291.8	2.714
298.15 K, x1 = 0.9069	889.93	1296.8	2.778
298.15 K, x1 = 0.9527	893.12	1301.5	2.838
303.15 K, x1 = 0.0539	787.87	1143.4	–
303.15 K, x1 = 0.054	–	–	1.803
303.15 K, x1 = 0.1088	797.64	1155.2	1.819
303.15 K, x1 = 0.1607	806.24	1166.2	1.847
303.15 K, x1 = 0.2041	812.99	1175.3	1.866
303.15 K, x1 = 0.2567	820.65	1185.7	1.889
303.15 K, x1 = 0.3095	827.86	1195.9	1.923
303.15 K, x1 = 0.4041	839.68	1213	1.988
303.15 K, x1 = 0.5041	850.85	1229.2	2.079
303.15 K, x1 = 0.6113	861.54	1244.9	2.194
303.15 K, x1 = 0.7078	870.2	1257.7	–
303.15 K, x1 = 0.7079	–	–	2.308
303.15 K, x1 = 0.8095	878.49	1269.7	2.427
303.15 K, x1 = 0.857	882.1	1274.8	2.487
303.15 K, x1 = 0.9069	885.74	1280	2.549
303.15 K, x1 = 0.9527	888.94	1284.7	2.604
308.15 K, x1 = 0.0539	783.58	1125.5	–
308.15 K, x1 = 0.054	–	–	1.576
308.15 K, x1 = 0.1088	793.36	1137.7	1.587
308.15 K, x1 = 0.1607	801.96	1148.9	1.606
308.15 K, x1 = 0.2041	808.71	1157.9	1.624
308.15 K, x1 = 0.2567	816.4	1168.5	1.654
308.15 K, x1 = 0.3095	823.61	1178.8	1.678
308.15 K, x1 = 0.4041	835.44	1195.9	1.734
308.15 K, x1 = 0.5041	846.62	1212.1	1.809
308.15 K, x1 = 0.6113	857.32	1228	1.886
308.15 K, x1 = 0.7078	865.98	1240.6	–
308.15 K, x1 = 0.7079	–	–	1.968
308.15 K, x1 = 0.8095	874.28	1252.6	2.056
308.15 K, x1 = 0.857	877.88	1257.8	2.101
308.15 K, x1 = 0.9069	881.52	1263	2.145
308.15 K, x1 = 0.9527	884.72	1267.7	2.188
313.15 K, x1 = 0.0539	778.94	1108	–
313.15 K, x1 = 0.1088	788.77	1120.2	–
313.15 K, x1 = 0.1607	797.4	1131.4	–
313.15 K, x1 = 0.2041	804.16	1140.5	–
313.15 K, x1 = 0.2567	811.87	1151.3	–
313.15 K, x1 = 0.3095	819.11	1161.5	–
313.15 K, x1 = 0.4041	830.99	1178.7	–
313.15 K, x1 = 0.5041	842.22	1195.1	–
313.15 K, x1 = 0.6113	852.97	1211.1	–
313.15 K, x1 = 0.7078	861.66	1223.7	–
313.15 K, x1 = 0.8095	870.01	1235.8	–
313.15 K, x1 = 0.857	873.63	1241	–
313.15 K, x1 = 0.9069	877.27	1246.2	–
313.15 K, x1 = 0.9527	880.47	1250.8	–

CCCCOCCO [2-butoxyethan-1-ol] + CCC(C)O
Details	mass density [kg/m3]	speed of sound [m/s]	viscosity [mPa·s]
293.15 K, x1 = 0.0517	813.24	1236.5	–
293.15 K, x1 = 0.1011	819.25	1242	–
293.15 K, x1 = 0.152	825.25	1247.7	–
293.15 K, x1 = 0.2027	831.03	1253.1	–
293.15 K, x1 = 0.2541	836.67	1258.4	–
293.15 K, x1 = 0.3092	842.49	1264	–
293.15 K, x1 = 0.4012	851.78	1272.9	–
293.15 K, x1 = 0.5011	861.21	1282.2	–
293.15 K, x1 = 0.6065	870.53	1291.4	–
293.15 K, x1 = 0.7054	878.73	1299.8	–
293.15 K, x1 = 0.806	886.59	1307.9	–
293.15 K, x1 = 0.8558	890.31	1311.8	–
293.15 K, x1 = 0.8999	893.54	1315.3	–
293.15 K, x1 = 0.9516	897.19	1319.3	–
298.15 K, x1 = 0.0517	809.099	1218.9	2.932
298.15 K, x1 = 0.1011	815.491	1224.3	2.809
298.15 K, x1 = 0.152	821.091	1229.9	2.713
298.15 K, x1 = 0.2027	826.863	1235.3	2.66
298.15 K, x1 = 0.2541	832.498	1240.7	2.607
298.15 K, x1 = 0.3092	838.314	1246.4	2.586
298.15 K, x1 = 0.4012	847.585	1255.4	2.563
298.15 K, x1 = 0.5011	857.012	1264.8	2.583
298.15 K, x1 = 0.6065	866.34	1274.2	–
298.15 K, x1 = 0.6066	–	–	2.598
298.15 K, x1 = 0.7054	874.537	1282.5	2.653
298.15 K, x1 = 0.806	882.398	1290.7	2.711
298.15 K, x1 = 0.8558	886.109	1294.6	2.747
298.15 K, x1 = 0.8999	889.334	1298.1	2.796
298.15 K, x1 = 0.9516	892.99	1302.2	2.824
303.15 K, x1 = 0.0517	804.88	1202	2.441
303.15 K, x1 = 0.1011	810.88	1207	2.357
303.15 K, x1 = 0.152	816.86	1212.3	2.319
303.15 K, x1 = 0.2027	822.62	1217.7	2.283
303.15 K, x1 = 0.2541	828.26	1223	2.249
303.15 K, x1 = 0.3092	834.08	1228.6	2.22
303.15 K, x1 = 0.4012	843.34	1237.7	2.224
303.15 K, x1 = 0.5011	852.78	1247.4	2.283
303.15 K, x1 = 0.6065	862.11	1257.1	–
303.15 K, x1 = 0.6066	–	–	2.342
303.15 K, x1 = 0.7054	870.3	1265.5	2.419
303.15 K, x1 = 0.806	878.16	1273.8	2.488
303.15 K, x1 = 0.8558	881.88	1277.7	2.53
303.15 K, x1 = 0.8999	885.1	1281.2	2.562
303.15 K, x1 = 0.9516	888.76	1285.1	2.606
308.15 K, x1 = 0.0517	800.58	1183	2.081
308.15 K, x1 = 0.1011	806.58	1188.7	2.031
308.15 K, x1 = 0.152	812.55	1194.5	1.994
308.15 K, x1 = 0.2027	818.33	1200	1.97
308.15 K, x1 = 0.2541	823.96	1205.6	1.944
308.15 K, x1 = 0.3092	829.79	1211.4	1.935
308.15 K, x1 = 0.4012	839.07	1220.6	1.935
308.15 K, x1 = 0.5011	848.49	1230.3	1.964
308.15 K, x1 = 0.6065	857.81	1240	–
308.15 K, x1 = 0.6066	–	–	1.998
308.15 K, x1 = 0.7054	866.02	1248.6	2.064
308.15 K, x1 = 0.806	873.9	1256.7	2.112
308.15 K, x1 = 0.8558	877.63	1260.8	2.144
308.15 K, x1 = 0.8999	880.86	1264.2	2.172
308.15 K, x1 = 0.9516	884.53	1268.2	2.196
313.15 K, x1 = 0.0517	796.19	1164.9	–
313.15 K, x1 = 0.1011	802.19	1170.6	–
313.15 K, x1 = 0.152	808.15	1176.6	–
313.15 K, x1 = 0.2027	813.93	1182.3	–
313.15 K, x1 = 0.2541	819.59	1188	–
313.15 K, x1 = 0.3092	825.43	1193.9	–
313.15 K, x1 = 0.4012	834.71	1203.5	–
313.15 K, x1 = 0.5011	844.14	1213.3	–
313.15 K, x1 = 0.6065	853.46	1223.1	–
313.15 K, x1 = 0.7054	861.68	1231.8	–
313.15 K, x1 = 0.806	869.59	1240.2	–
313.15 K, x1 = 0.8558	873.33	1244.1	–
313.15 K, x1 = 0.8999	876.56	1247.6	–
313.15 K, x1 = 0.9516	880.24	1251.6	–
